Drawing on patent US11053239B2, “Compounds as BLC-2-selective apoptosis-inducing agents” (Fochon Pharmaceuticals, Ltd., priority 2017, dated 2021), this text covers IC50 for twelve molecules.

Experiment [1] concerns RS4; 11 cells. The experiment can be described thus: Cell proliferation assay (MTS), RS4; 11 cells. In kind it is cell-based. The settings on record: RS4, 11 (ATCC CRL-1873) cell proliferation, 30000 cells/well, 72 h, MTS, mechanism-based readout of Bcl-2 inhibition, read-out: RS4, 11 IC50. In short, it runs like this: (§1)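 RS4;11 (30000 cells/well, 72 h) and DOHH2 (5000 cells/well, 120 h) cells in RPMI-1640/10% FBS, treated at 37 °C with compound at 1.5–10000 nM final. Viability by MTS (2 h, SDS stop), absorbance 490 nm minus 650 nm reference; IC50 fitted.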

The test system of experiment [2] is DOHH2 cells. Briefly: Cell proliferation assay (MTS), DOHH2 cells. The settings on record: DOHH2 (DSMZ ACC 47) cell proliferation, 5000 cells/well, 120 h, MTS, mechanism-based readout of Bcl-2 inhibition, read-out: DOHH2 IC50. In kind it is cell-based. The procedure, abridged:
as §1

Like-named read-outs stand apart in the source and are kept apart here.

Regarding “(S)-2-((1H-pyrrolo[2,3-b] pyridin-5-yl)oxy)-4-(4-((4′- chloro-5,5-dimethyl- 3,4,5,6-tetrahydro-[1,1′- biphenyl]-2-yl)methyl) piperazin-1-yl)-N-((4-((1-(4- ((dimethyl(oxo)-λ^6- sulfanylidene)amino) piperidin-1-yl)propan-2-yl) amino)-3-nitrophenyl)sulfonyl) benzamide [Example 97]”, the figures for the IC50 in experiment [1] and in experiment [2] were 0.001 µM and 0.325 µM, respectively.

Turning to `COC(=O)N=S1(=O)CCN(C[C@H](C)Nc2ccc(S(=O)(=O)NC(=O)c3ccc(N4CCN(CC5=C(c6ccc(Cl)cc6)CC(C)(C)CC5)CC4)cc3Oc3cnc4[nH]ccc4c3)cc2[N+](=O)[O-])CC1` [Example 44, methyl (S)-(4-(2-((4-(N-(2-((1H-pyrrolo[2,3-b]pyridin-5-yl)oxy)-4-(4-((4′-chloro-5,5-dimethyl-3,4,5,6-tetrahydro-[1,1′-biphenyl]-2-yl)methyl)piperazin-1-yl)benzoyl)sulfamoyl)-2-nitrophenyl)amino)propyl)-1-oxido-1λ^6-thiomorpholin-1-ylidene) carbamate], the IC50 in experiment [1] (Homo sapiens, RS4-11, 72 h) came to 0.021 µM; in experiment [2] (Homo sapiens, DOHH-2, 120 h), 0.02 µM.

For the molecule `CC1(C)CCC(CN2CCN(c3ccc(C(=O)NS(=O)(=O)c4ccc(NCC5CCC(N=S(C)(C)=O)CC5)c([N+](=O)[O-])c4)c(Oc4cnc5[nH]ccc5c4)c3)CC2)=C(c2ccc(Cl)cc2)C1` (single isomer, unassigned) [Example 50B, 2-((1H-pyrrolo[2,3-b]pyridin-5-yl)oxy)-4-(4-((4′-chloro-5,5-dimethyl-3,4,5,6-tetrahydro-[1,1′-biphenyl]-2-yl)methyl)piperazin-1-yl)-N-((4-(((4-((dimethyl(oxo)-λ^6-sulfanylidene)amino)cyclohexyl)methyl)amino)-3-nitrophenyl)sulfonyl) benzamide], the values for the IC50 in experiment [1] and in experiment [2] were 0.004 µM and 0.0134 µM, respectively.

In the case of `C[C@@H](CCN1CCS(=O)(=NC2CC2)CC1)Nc1ccc(S(=O)(=O)NC(=O)c2ccc(N3CCN(CC4=C(c5ccc(Cl)cc5)CC(C)(C)CC4)CC3)cc2Oc2cnc3[nH]ccc3c2)cc1[N+](=O)[O-]` [Example 79, (S)-2-((1H-pyrrolo[2,3-b]pyridin-5-yl)oxy)-4-(4-((4′-chloro-5,5-dimethyl-3,4,5,6-tetrahydro-[1,1′-biphenyl]-2-yl)methyl)piperazin-1-yl)-N-((4-((4-(1-(cyclopropylimino)-1-oxido-1λ^6-thiomorpholino)butan-2-yl)amino)-3-nitrophenyl)sulfonyl)benzamide], the IC50 in experiment [1] (Homo sapiens, RS4-11, 72 h) stood at 0.014 µM; in experiment [2] (Homo sapiens, DOHH-2, 120 h) it was 0.011 µM.

As for `CN=S1(=O)CCN(CC[C@H](C)Nc2ccc(S(=O)(=O)NC(=O)c3ccc(N4CCN(CC5=C(c6ccc(Cl)cc6)CC(C)(C)CC5)CC4)cc3Oc3cnc4[nH]ccc4c3)cc2[N+](=O)[O-])CC1` [Example 94, (S)-2-((1H-pyrrolo[2,3-b]pyridin-5-yl)oxy)-4-(4-((4′-chloro-5,5-dimethyl-3,4,5,6-tetrahydro-[1,1′-biphenyl]-2-yl)methyl)piperazin-1-yl)-N-((4-((4-(1-(methylimino)-1-oxido-1λ^6-thiomorpholino)butan-2-yl)amino)-3-nitrophenyl)sulfonyl) benzamide], the IC50 was found to be 0.027 µM in experiment [1] (Homo sapiens, RS4-11, 72 h) and 0.015 µM in experiment [2] (Homo sapiens, DOHH-2, 120 h).

As to `CC(C)OC(=O)N=S1(=O)CCN(CC[C@H](C)Nc2ccc(S(=O)(=O)NC(=O)c3ccc(N4CCN(CC5=C(c6ccc(Cl)cc6)CC(C)(C)CC5)CC4)cc3Oc3cnc4[nH]ccc4c3)cc2S(=O)(=O)C(F)(F)F)CC1` [Example 93, isopropyl (S)-(4-(3-((4-(N-(2-((1H-pyrrolo[2,3-b]pyridin-5-yl)oxy)-4-(4-((4′-chloro-5,5-dimethyl-3,4,5,6-tetrahydro-[1,1′-biphenyl]-2-yl)methyl)piperazin-1-yl)benzoyl)sulfamoyl)-2-((trifluoromethyl)sulfonyl)phenyl)amino)butyl)-1-oxido-1λ^6-thiomorpholin-1-ylidene) carbamate], the IC50 in experiment [1] (Homo sapiens, RS4-11, 72 h) came to 0.184 µM; in experiment [2] (Homo sapiens, DOHH-2, 120 h), 0.537 µM.

As for `CC1(C)CCC(CN2CCN(c3ccc(C(=O)NS(=O)(=O)c4ccc(NCC5CCC(NS(C)(=N)=O)CC5)c([N+](=O)[O-])c4)c(Oc4cnc5[nH]ccc5c4)c3)CC2)=C(c2ccc(Cl)cc2)C1` (stereo not drawn) [Example 56, 4-(4-{[2-(4-chlorophenyl)-4,4-dimethylcyclohexyl-1-en-1-yl]methyl}piperazin-1-yl)-N-(4-{[(4-methanesulfono-imidamidocyclohexyl)methyl]amino}-3-nitrobenzenesulfonyl)-2-{1H-pyrrolo[2,3-b]pyridine-5-yloxy}benzamide], the IC50 in experiment [1] was 0.012 µM; in experiment [2], 0.05 µM.

For the molecule `CCN=S1(=O)CCN(CC[C@H](C)Nc2ccc(S(=O)(=O)NC(=O)c3ccc(N4CCN(CC5=C(c6ccc(Cl)cc6)CC(C)(C)CC5)CC4)cc3Oc3cnc4[nH]ccc4c3)cc2[N+](=O)[O-])CC1` [Example 78, (S)-2-((1H-pyrrolo[2,3-b]pyridin-5-yl)oxy)-4-(4-((4′-chloro-5,5-dimethyl-3,4,5,6-tetrahydro-[1,1′-biphenyl]-2-yl)methyl)piperazin-1-yl)-N-((4-((4-(1-(ethylimino)-1-oxido-1λ^6-thiomorpholino)butan-2-yl)amino)-3-nitrophenyl)sulfonyl) benzamide], the IC50 came to 0.016 µM in experiment [1] (Homo sapiens, RS4-11, 72 h) and 0.011 µM in experiment [2] (Homo sapiens, DOHH-2, 120 h).

For `CC(=O)N=S1(=O)CCN(C[C@H](C)Nc2ccc(S(=O)(=O)NC(=O)c3ccc(N4CCN(CC5=C(c6ccc(Cl)cc6)CC(C)(C)CC5)CC4)cc3Oc3cnc4[nH]ccc4c3)cc2[N+](=O)[O-])CC1` [Example 40, (S)-2-((1H-pyrrolo[2,3-b]pyridin-5-yl)oxy)-N-((4-((1-(1-(acetylimino)-1-oxido-1λ^6-thiomorpholino)propan-2-yl)amino)-3-nitrophenyl)sulfonyl)-4-(4-((4′-chloro-5,5-dimethyl-3,4,5,6-tetrahydro-[1,1′-biphenyl]-2-yl)methyl)piperazin-1-yl)benzamide], the IC50 came out at 0.029 µM in experiment [1] (Homo sapiens, RS4-11, 72 h) and 0.084 µM in experiment [2] (Homo sapiens, DOHH-2, 120 h).

As to `CCOC(=O)N=S1(=O)CCN(C[C@H](C)Nc2ccc(S(=O)(=O)NC(=O)c3ccc(N4CCN(CC5=C(c6ccc(Cl)cc6)CC(C)(C)CC5)CC4)cc3Oc3cnc4[nH]ccc4c3)cc2S(=O)(=O)C(F)(F)F)CC1` [Example 76, ethyl (S)-(4-(2-((4-(N-(2-((1H-pyrrolo[2,3-b]pyridin-5-yl)oxy)-4-(4-((4′-chloro-5,5-dimethyl-3,4,5,6-tetrahydro-[1,1′-biphenyl]-2-yl)methyl)piperazin-1-yl)benzoyl)sulfamoyl)-2-((trifluoromethyl)sulfonyl)phenyl)amino)propyl)-1-oxido-1λ^6-thiomorpholin-1-ylidene) carbamate], the IC50 in experiment [1] (Homo sapiens, RS4-11, 72 h) was determined as 0.208 µM; in experiment [2] (Homo sapiens, DOHH-2, 120 h), 0.247 µM.

In the case of `CCOC(=O)N=S1(=O)CCN(CC[C@H](C)Nc2ccc(S(=O)(=O)NC(=O)c3ccc(N4CCN(CC5=C(c6ccc(Cl)cc6)CC(C)(C)CC5)CC4)cc3Oc3cnc4[nH]ccc4c3)cc2[N+](=O)[O-])CC1` [Example 85, ethyl (S)-(4-(3-((4-(N-(2-((1H-pyrrolo[2,3-b]pyridin-5-yl)oxy)-4-(4-((4′-chloro-5,5-dimethyl-3,4,5,6-tetrahydro-[1,1′-biphenyl]-2-yl)methyl)piperazin-1-yl)benzoyl)sulfamoyl)-2-nitrophenyl)amino)butyl)-1-oxido-1λ^6-thiomorpholin-1-ylidene) carbamate], the IC50 in experiment [1] (Homo sapiens, RS4-11, 72 h) is 0.036 µM; in experiment [2] (Homo sapiens, DOHH-2, 120 h), 0.03 µM.

For the molecule `CC1(C)CCC(CN2CCN(c3ccc(C(=O)NS(=O)(=O)c4ccc(NCC5CCS(=O)(=NC6CC6)CC5)c(S(=O)(=O)C(F)(F)F)c4)c(Oc4cnc5[nH]ccc5c4)c3)CC2)=C(c2ccc(Cl)cc2)C1` (stereo not drawn) [Example 8, 2-((1H-pyrrolo[2,3-b]pyridin-5-yl)oxy)-4-(4-((4′-chloro-5,5-dimethyl-3,4,5,6-tetrahydro-[1,1′-biphenyl]-2-yl)methyl)piperazin-1-yl)-N-((4-(((1-(cyclopropylimino)-1-oxidohexahydro-1λ^6-thiopyran-4-yl)methyl)amino)-3-((trifluoromethyl)sulfonyl)phenyl)sulfonyl)benzamide], the IC50 in experiment [1] (Homo sapiens, RS4-11, 72 h) turned out to be 0.033 µM; in experiment [2] (Homo sapiens, DOHH-2, 120 h), 0.099 µM.
